# Laboratory results taken from article PMC4389225, “Triaminopyrimidine is a fast-killing and long-acting antimalarial clinical candidate” (Nature Communications, 2015).
# Assays:
# [1] = 3-day rat toxicity (tolerability) study of compound 12; type: in vivo; conditions: for Summary of clinical signs and effects: NOEL = no observed effect level
# Protocol: Two groups of male rats (n=3, Han Wistar) were obtained from Charles River Laboratories, UK. Animals were group housed for ~1 week before the initiation of dosing. On the first day of dosing, rats were ~11 weeks of age and weighed 250–300 g and received compound 12 via oral gavage at dose levels of 75 or 150 mg kg^−1 for three consecutive days and necropsied 24 h after the final dose. Vehicle: 1% pluronic F127; dose volume: 10 ml kg^−1. In addition to regular monitoring of the animals' general condition, toxicokinetic profiles were obtained on day 1 and clinical chemistry, haematology and histopathology were assessed from all animals on day 4. Female animals were not included in the study as sex differences in either exposure or tolerability were not expected and control animals were excluded from this preliminary study design to reduce animal usage. Body weights were collected during acclimation and before each dose. Food and water consumption were available ad libitum but not recorded.
# Toxicokinetic profiles were obtained on day 1 from all animals (time points: 0.5, 1, 2, 4, 6 and 24 h post dose) via microsample tail prick (32 μl blood) and were analysed using a qualified analytical procedure. Clinical pathology blood samples were taken at necropsy (24 h after third and final dose) from all animals, and analysed following a routine toxicological parameter list. Urinalysis was not performed.
# [2] = Acute anaesthetized guinea pig cardiovascular (CVS) model, compound 12; type: in vivo
# Protocol: Male Dunkin Hartley guinea pigs (n=6 per group; 342–401 g; 4–5 weeks old; Charles River Laboratories, L’Arbresle, Cedex) were anaesthetized with sodium pentobarbitone (60 mg kg^−1 intraperitoneally followed by 6 mg kg^−1 h^−1 i.v. (jugular) for maintenance) and mechanically ventilated. Animals were surgically prepared for the measurement of haemodynamic (blood pressure, heart rate and contractility (including left ventricular pressure)) and electrocardiographic (ECG)-derived parameters (QTcB, PR interval and QRS duration). Briefly, catheters were introduced into a carotid artery and a jugular vein for the measurement of arterial blood pressure and administration of the test item, respectively. Needle electrodes were placed subcutaneously in a lead II position for ECG recording. A fluid-filled catheter was introduced into the left ventricle via the opposite carotid artery for left ventricular pressure measurement.
# Animals received two consecutive i.v. infusions of either vehicle (group 1; 40% v/v dimethylacetamide/20% v/v polyethylene glycol 400/17% w/v hydroxyl propyl beta cyclodextrin (HPβCD/kleptose) in water for injection) or compound 12 at 10 or 30 mg kg^−1 (group 2). Each infusion lasted for 15 min at a dose volume of 3 ml kg^−1 (rate of 0.2 ml kg^−1 min^−1). Animals were monitored for a further 30-min washout period. Blood samples were taken at 5, 10 and 15 min after the start of each infusion and at 5, 10, 20 and 30 min during the washout phase.
# Following a stabilization period, haemodynamic and ECG parameters were measured (using HEM software, version 4.3, Notocord Systems) at 10 and 5 min before administration (mean of measurements obtained at these time points=baseline; T0), and 2.5, 5, 10 and 15 min after the start of each i.v. infusion of compound 12 or vehicle and 5, 10, 20 and 30 min after the end of the second infusion. A detailed description of the model, its background and validation has been described earlier.
# All parameters were analysed statistically using SAS software. Baseline values were defined as mean of measurments taken 10 or 5 min before dosing. For each parameter, homogeneity of baseline values (T0) between the two groups were tested using a two-tailed Student’s t-test. Changes from baseline were assessed using a two-way analysis of variance (group and time) with repeated measurements over the time and group × time interaction.
# Anaesthetised Guinea Pig Cardiovascular toxicity study for compound 12. Group mean ±SEM data are presented in Supplementary Fig. 16a to 16l. Mean ± standard error plasma exposure data are illustrated in Supplementary Fig. 16m. The mean of the two control recording periods was used as a baseline value. Administration of vehicle produced the expected level of variability in cardiovascular parameters over the time course of this study.
# This was considered within acceptable ranges for vehicle data. Actual changes caused by compound 12 were derived by subtracting the effect of the time-matched vehicle data and are discussed using mean % change from baseline values. All findings reported below achieved statistical significance (P < 0.05), unless indicated as a trend. Isolated incidences of statistical significance, that show no relation to compound effects, were not considered of […]
# Blood pressure, LVP and heart rate effect: Following i.v. administration of compound 12 at 10 mg/kg, the following observations were noted:
# - A 15% decrease in dP/dtmax (an index of cardiac contractility).
# As the dose increased to 30 mg/kg, the following effects were observed:
# - A 8% decrease in heart rate (HR), - A 10% decrease in left ventricular systolic pressure (LVsys), - A 27% decrease in dP/dtmax.
# There was evidence of recovery for dP/dtmax during the 30 minutes wash-out period.
# Despite attaining statistical significance, the magnitude of the effects on dP/dtmax at […]
# Hepatocyte Clint, human = type: in vitro ADME; conditions: hepatocytes
# Text: (§1) Supplementary Note 5: Prediction of human clearance for compound 12 by IVIVE.
# (§2) Human clearance (CL) was predicted by in vitro-in vivo extrapolation (IVIVE) from the in vitro Clint in human hepatocytes6. In vitro Clint was scaled to in vivo Clint as follows:
# (§3) Clint in vivo = Clint in vitro * scaling factors * fublood/fuinc
# (§4) The liver weights used for scaling were 40, 32 and 24 g/kg body weight in rat, dog and human respectively. Hepatocellularity used for scaling was 163, 169 and 120 (X 106) cells/g liver in rat, dog and human respectively. Free fraction in blood was calculated as fuplasma /Blood:Plasma (BP) ratio. BP ratio and free fraction in the hepatocyte incubation mix, fuinc, were measured in vitro. Slope and intercept from the linear regression analysis of IVIVC for a large number of AstraZeneca compounds was applied for final correction in the scaled in vivo Clint. A well stirred model was used for CL prediction.
# (§5) Where Qh is the liver blood flow. The values of Qh in rat, dog and human are 72, 55 and 20 mL.min-1kg-1 in rat, dog and human, respectively. In vitro parameters, observed in vivo CL and predicted CL are shown in supplementary Table 10. […]
# (§6) (also on this page, place not known: in vivo in vivo CLintQ CLintQCL Predicted predicted predicted h h + ×=)
# (§7) (1 picture or pasted object on this page, not shown here)
# Hepatocyte Clint, dog = type: in vitro ADME; conditions: for Predicted blood CL: Dog
# Text: as §1, §2, §3, §4, §5, §6, §7
# [3] = Plasma protein binding, guinea pig
smiles,measurement,setting,value
"Cc1nc(Nc2ncc(N3CCN(C)[C@H](C)C3)c(Nc3cc(C)n(C)n3)n2)cc(C2CC2)c1F [compound 12, (R)-N2-(4-cyclopropyl-5-fluoro-6-methylpyridin-2-yl)-N4-(1,5-dimethyl-1H-pyrazol-3-yl)-5-(3,4-dimethylpiperazin-1-yl)pyrimidine-2,4-diamine]",A—plasma Cmax free,[1]; 75 mg kg^−1 per day oral,110 nM
same,Safety margin (A/B)-free Cmax,[1]; 75 mg kg^−1 per day oral,12.6
same,Summary of clinical signs and effects,[1]; 75 mg kg^−1 per day oral,NOEL
same,A—plasma Cmax free,[1]; 150 mg kg^−1 per day oral,130 nM
same,Safety margin (A/B)-free Cmax,[1]; 150 mg kg^−1 per day oral,15
same,Summary of clinical signs and effects,[1]; 150 mg kg^−1 per day oral,NOEL
same,clinical pathology and histopathology findings,"[1]; 75 or 150 mg kg^−1 oral, three days",no findings considered related to treatment
same,"PR interval, QRS duration and QTcB interval",[2]; 10 mg/kg i.v.,unaffected
same,decrease in dP/dtmax (index of cardiac contractility),"[2]; 10 mg/kg i.v., vehicle-corrected mean % change from baseline",15%
same,decrease in heart rate (HR),[2]; 30 mg/kg i.v.,8%
same,decrease in left ventricular systolic pressure (LVsys),[2]; 30 mg/kg i.v.,10%
same,increase in QTcB,[2]; 30 mg/kg i.v.,7%
same,decrease in dP/dtmax,"[2]; 30 mg/kg i.v., vehicle-corrected mean % change from baseline",27%
same,A—plasma Cmax free,"[2]; guinea pig, 10 mg kg^−1 i.v.",90 nM
same,Safety margin (A/B)-free Cmax,"[2]; guinea pig, 10 mg kg^−1 i.v.",10.3
same,Summary of clinical signs and effects,"[2]; guinea pig, 10 mg kg^−1 i.v., NOEL = no observed effect level",NOEL
same,Peak total plasma concentration,"[2]; guinea pig, 10 mg/kg i.v.",1.69 ± 0.15 µmol/L
same,A—plasma Cmax free,"[2]; guinea pig, 30 mg kg^−1 i.v.",280 nM
same,Safety margin (A/B)-free Cmax,"[2]; guinea pig, 30 mg kg^−1 i.v.",32.2
same,Summary of clinical signs and effects,"[2]; guinea pig, 30 mg kg^−1 i.v.",Contractility and QTcB effects
same,Peak total plasma concentration,"[2]; guinea pig, 30 mg/kg i.v.",5.05 ± 0.64 µmol/L
same,NOEL,"[2]; guinea pig, i.v.",10 mg/kg
same,hepatocyte CLint,"Hepatocyte Clint, human",3.1 µL/min/1e6 cells
same,Predicted blood CL,"Hepatocyte Clint, dog",38 % LBF
same,Predicted blood CL,"Hepatocyte Clint, dog; IVIVC from hepatocyte Clint",20.8 mL/min/kg
same,hepatocyte CLint,"Hepatocyte Clint, dog; dog, hepatocytes",9.3 µL/min/1e6 cells
same,Plasma protein binding (% free),[3]; Guinea pig,5.5 % free
same,fraction unbound,"[3]; guinea pig, plasma",0.055
